This is an account of results in patent publication US8101411B2, “Method for production of corosolic acid in suspension culture of plant cells” (Samyang Genex Corporation, priority 2005, dated 2012).

Data set [1] relates to suspension-cultured cells of Eriobotrya japonica. The data set can be described thus: Addition of inducing agent (elicitor) at the production stage of two-stage high cell-density suspension culture. The format is cell-based. The note with it: for Productivity of Corosolic acid / Productivity of Corosolic acid (% DW) / Cell Dry Weight: 14 days. Here is the method:
The cell dry weight was obtained by filtering sampled plant cell culture through Watman no. 4 filter paper using a Buchner funnel, and oven drying at a temperature of 60° C. for 24 hours. […] The % DW (Dry Weight) was calculated from the calculated concentration of corosolic acid. […] The volumetric productivity (mg/L) was calculated by multiplying the calculated % DW content with the cell concentration (g/L, DW) in cell culture. 50 ml of the cell lines which were obtained in EXAMPLE 1-2 were cultured in LS medium with addition of 10 μM of NAA and 1 μM of BA, and collected after 7 days, and 50 ml of 2× concentration of mB5 medium were mixed and cultured in a 250 ml flask. […] The Eriobotrya japonica cells were cultured according to the method of Example 3,except that the concentration of sucrose added to the mB5 medium as the carbon source at the production stage, and the inoculation ratio of Eriobotrya japonica cell were varied as in Table 7. […] In the two-stage culture by using high cell-density culture of Example 4, 6% of sucrose was added to mB5 medium at the production stage, and the inoculated amount was 6 g/L cell dry weight.

Data set [2] deals with absorption of glucose into cells. The note with it: similar to that of insulin; Chem Pharm. Bull. 41(12): 2129-2131, 1993; cited from earlier work.
The conditions of data set [3]: cited from earlier work.
Setting [4] is: AgNO3 2 μM, added at 0-day culture.
Where [5] appears, read: AgNO3 4 μM, added at 0 day culture.
[6] abbreviates: AgNO3 6 μM, added at 0-day culture.
Where [7] appears, read: Methyl jasmonate 400 μM, added at 3-day culture.
The mark [8] stands for this setting: Sodium butyrate 1.0 mM, added at 3-day culture.

Turning to `O=[N+]([O-])[O-].[Ag+]` [AgNO3, silver nitrate], the “maximal concentration of cell increased by” value in data set [1] (4 μM added, versus control) was 45%. The “productivity of the suspension-cultured cell” value in data set [1] (2-6 μM added to the culture medium, versus control) is recorded as “increased the productivity”. Besides, the “Productivity of Corosolic acid” value in data set [1] (setting [4]) is 1152.07 mg/L; in data set [1] (setting [5]), 1551.78 mg/L; in data set [1] (setting [6]) it was 1335.86 mg/L. Moreover, the “Productivity of Corosolic acid (% DW)” value in data set [1] (setting [4]) came out at 4.42 % DW; in data set [1] (setting [5]), 6.05 % DW; in data set [1] (setting [6]) it was 5.44 % DW. Besides, the “Cell Dry Weight” value in data set [1] (AgNO3 2 μM, added at 0-day culture, mB5, 6% sucrose, 6 g/L inoculum) turned out to be 26.05 g/L; in data set [1] (setting [5]), 25.66 g/L; in data set [1] (setting [6]), 24.57 g/L.
On to `CC/C=C\CC1C(=O)CCC1CC(=O)OC` (stereo not shown) [Methyl jasmonate], for which, in data set [1] (400 μM methyl jasmonate, versus control), the “amount of corosolic acid increased by” value is reported as 100%. In addition, in data set [1] (setting [7]), the “Cell Dry Weight” value was 22.72 g/L, the “Productivity of Corosolic acid” value was 1913.16 mg/L and the “Productivity of Corosolic acid (% DW)” value was determined as 8.42 % DW.
With `CCCC(=O)[O-].[Na+]` [Sodium butyrate], in data set [1] (1 mM sodium butylate, versus control), the “amount of corosolic acid increased by” value amounted to 100%. For the same compound, in data set [1] (setting [8]), the “Cell Dry Weight” value is listed as 24.54 g/L, the “Productivity of Corosolic acid” value turned out to be 2081.13 mg/L and the “Productivity of Corosolic acid (% DW)” value is recorded as 8.48 % DW.
As for corosolic acid, the “activity on absorption of glucose into cells” value in data set [2] was “promoting a rapid absorption of glucose into cells”. Further, the “effect on blood-sugar levels” value in data set [3] (clinical demonstration, Journal of Ethnopharmacology 87: 115 117, 2003) is given as “rawer blood-sugar levels”. Further, the side effects entry in data set [3] (in vivo) is “without any side effects”.
